Laboratory results: US11998554B2, “Composition comprising lipoic acid and vitamin D for the prevention and the treatment of neurodegenerative diseases and peripheral neuropathies” (URIACH ITALY S.R.L., priority 2018, dated 2024)

Legend:
astrocytes [1] = assay: MTT cell viability, dose- and time-dependent, physiological conditions; format: cell-based, mouse; conditions: 1440 min, 50 μM LA, 100 nM vitD
Protocol: The cultures of mouse astrocytes were prepared from male and female C57BL/6 baby mice, following a known conventional technique according to the national guidelines for the use and care of laboratory animals. Basically, within 24 hours from birth, the baby mice were euthanized and the corticals were cut, […] minced, mechanically digested and left to rest for 30 minutes at ambient temperature. The cell suspension was then centrifuged at 800 rpm (revolutions per minute) for 5 minutes. The pelleted cells were resuspended in neuronal basal medium (Sigma-Aldrich), supplemented with fetal bovine serum at 5% (FBS, Gibco), penicillin/streptomycin 1% (Sigma-Aldrich) and L-glutamine 2 mM (Sigma-Aldrich), placed in multiple wells and kept in culture for 6 days prior to the treatment. […] Cell viability was determined by measuring absorbance at 570 nm with correction at 690 nm, using a spectrometer (VICTOR X4, multi-label plate reader) and calculated by comparing the results with the control. […] Firstly, the effect depending on the concentration of LA alone (comprised between 10 μM and 100 μM) on the cell viability over 24 hours (starting from 15 minutes to 1440 minutes) was analysed, with the aim of identifying the best concentration to be used. FIG. 1(a) illustrates the time-dependent and dose-response studies (ranging from 10 μM to 100 μM) of LA measured in astrocytes.

astrocytes [2] = assay: MTT cell viability under oxidative conditions (H2O2 pre-treatment); format: cell-based, mouse; conditions: for cell viability after post-treatment (in words): 200 μM H2O2 pre-treatment, then 50 μM LA, 100 nM vitD, 24 hours
astrocytes [3] = assay: Production of ROS (superoxide anion release) under oxidative conditions; format: cell-based, mouse; conditions: for reduction of production of ROS with respect to H2O2 alone: post-treatment after 200 μM H2O2
astrocytes [4] = assay: Mitochondrial membrane potential (JC-1) under oxidative conditions; format: cell-based, mouse; conditions: 50 μM LA, 100 nM vitD; for mitochondrial potential without H2O2 (in words): p<0.05; for dissipation of the mitochondrial potential after post-treatment, with respect to H2O2 alone (in words): after 200 μM H2O2
p53 [5] = assay: Activity of p53 (ELISA on nuclear extracts) under oxidative conditions; format: cell-based, mouse; conditions: for activity of p53 without H2O2 vs control (in words): 50 μM LA, 100 nM vitD, p<0.05; for activity of p53 after H2O2 (in words): stimulation after 200 μM H2O2
cytochrome C = assay: Western blot expression of cytochrome C under oxidative conditions; format: cell-based, mouse; conditions: for expression of cytochrome C without H2O2 (in words): 50 μM LA, 100 nM vitD; for expression of cytochrome C after H2O2 (in words): stimulation after H2O2, p<0.05
SOD3 [6] = assay: Western blot expression of SOD3 under oxidative conditions; format: cell-based, mouse; conditions: post-stimulation after 200 μM H2O2
iNOS = assay: Western blot expression of iNOS under oxidative conditions; format: cell-based, mouse; conditions: post-stimulation after 200 μM H2O2
PKA = assay: Western blot expression of p-PKA under oxidative conditions; format: cell-based, mouse; conditions: for expression of PKA without H2O2 (in words): 50 μM LA, 100 nM vitD; for expression of PKA after H2O2 (in words): post-stimulation after 200 μM H2O2
ERK/MAPK [7] = assay: ERK/MAPK activity (ELISA InstantOne) under oxidative conditions; format: cell-based, mouse; conditions: for ERK/MAPK activity without H2O2 (in words): 24 hours, 50 μM LA, 100 nM vitD; for ERK activity after post-treatment following H2O2 (in words): after 200 μM H2O2
PI3K-Akt = PI3K-Akt activity (ELISA InstantOne) under oxidative conditions; format: cell-based, mouse; conditions: for PI3K-Akt activity without H2O2 (in words): 24 hours, 50 μM LA, 100 nM vitD; for Akt activity after post-treatment following H2O2 (in words): after 200 μM H2O2
astrocytes [8] = assay: MTT cell viability in astrocytes pre-treated with Fe^3+; format: cell-based, mouse; conditions: for cell viability after post-treatment following Fe^3+ (in words): 300 μM Fe^3+ 6 days, then treatment another 6 days
astrocytes [9] = assay: Production of ROS in astrocytes pre-treated with Fe^3+; format: cell-based, mouse; conditions: for reduction of production of ROS with respect to Fe^3+ alone: 300 μM Fe^3+ 6 days, then 50 μM LA, 100 nM vitD another 6 days
astrocytes [10] = assay: Iron quantification assay in astrocytes pre-treated with Fe^3+; format: cell-based, mouse; conditions: for reduction of accumulation of iron against Fe^3+ alone: 300 μM Fe^3+ 6 days, then 50 μM LA, 100 nM vitD another 6 days
p53 [11] = assay: Activity of p53 (ELISA) in astrocytes pre-treated with Fe^3+; format: cell-based, mouse; conditions: 300 μM Fe^3+ 6 days, then 50 μM LA, 100 nM vitD another 6 days
[12] = tested on: amyloid precursor protein (APP); assay: Quantification of APP (ELISA) in astrocytes pre-treated with Fe^3+; format: cell-based, mouse; conditions: for reduction of level of APP against 300 μM Fe^3+: 300 μM Fe^3+ 6 days, then 50 μM LA, 100 nM vitD another 6 days
SOD3 [13] = assay: Western blot expression of SOD3 in astrocytes pre-treated with Fe^3+; format: cell-based, mouse; conditions: 300 μM Fe^3+ 6 days, then 50 μM LA or 100 nM vitD 6 more days, p<0.05
ERK/MAPK [14] = assay: ERK/MAPK activity (ELISA) in astrocytes pre-treated with Fe^3+; format: cell-based, mouse; conditions: 300 μM Fe^3+ 6 days, then treatment another 6 days, p<0.05
[15] = tested on: blood-brain barrier (BBB) experimental model; assay: Blood-brain barrier (BBB) experimental model permeability (astrocytes/HUVEC Transwell co-culture); conditions: 1440 min; 100 nM vitD, 50 μM LA alone

Row | SMILES | cell viability, maximum effect with respect to the control (astrocytes [1]) | cell viability after post-treatment (in words) (astrocytes [2]) | reduction of production of ROS with respect to H2O2 alone (astrocytes [3]; 50 μM LA, 100 nM vitD) | mitochondrial potential without H2O2 (in words) (astrocytes [4]) | dissipation of the mitochondrial potential after post-treatment, with respect to H2O2 alone (in words) (astrocytes [4]) | activity of p53 without H2O2 vs control (in words) (p53 [5]) | activity of p53 after H2O2 (in words) (p53 [5]) | expression of cytochrome C without H2O2 (in words) (cytochrome C) | expression of cytochrome C after H2O2 (in words) (cytochrome C) | expression of SOD3 with respect to 200 μM of H2O2 (in words) (SOD3 [6]) | expression of iNOS with respect to 200 μM of H2O2 (in words) (iNOS) | expression of PKA without H2O2 (in words) (PKA) | expression of PKA after H2O2 (in words) (PKA) | ERK/MAPK activity without H2O2 (in words) (ERK/MAPK [7]) | ERK activity after post-treatment following H2O2 (in words) (ERK/MAPK [7]) | PI3K-Akt activity without H2O2 (in words) (PI3K-Akt) | Akt activity after post-treatment following H2O2 (in words) (PI3K-Akt) | cell viability after post-treatment following Fe^3+ (in words) (astrocytes [8]) | reduction of production of ROS with respect to Fe^3+ alone (astrocytes [9]) | reduction of accumulation of iron against Fe^3+ alone (astrocytes [10]) | other results
1 | C=C1CC[C@H](O)C/C1=C/C=C1\CCC[C@]2(C)[C@@H]([C@H](C)CCCC(C)C)CC[C@@H]12 [vitD, cholecalciferol] | about 22% | cell viability increased significantly | ~57% | significant increase of the red fluorescence | significantly inverted | reduction of the activity of p53 | reduced it significantly | results similar to those obtained for p53 | reduced | significantly reduced | significantly reduced | significant increase | restored the mechanism | activating ERK and Akt mediators | nullified the effects observed previously | activating ERK and Akt mediators | nullified the effects observed previously | cell viability leads to control values | ~83% | ~88% | reduction of activation of p53 with respect to 300 μM Fe^3+ (p53 [11]): ~88%; reduction of level of APP against 300 μM Fe^3+ [12]: ~55%; expression of SOD3 after Fe^3+ (in words) (SOD3 [13]): reduced; activation of ERK/MAPK with respect to 300 μM Fe^3+ (in words) (ERK/MAPK [14]): significant reduction; absorption capacity through the blood-brain barrier (basolateral volume analysis) with respect to the control [15]: about 49.5%
2 | O=C(O)CCCCC1CCSS1 (racemic) [LA, alpha-lipoic acid] | about 66% | cell viability increased significantly | about 43% | significant increase of the red fluorescence | significantly inverted | reduction of the activity of p53 | reduced it significantly | results similar to those obtained for p53 | reduced | significantly reduced | significantly reduced | significant increase | restored the mechanism | activating ERK and Akt mediators | nullified the effects observed previously | activating ERK and Akt mediators | nullified the effects observed previously | cell viability leads to control values | about 68% | about 81% | production of ROS without H2O2 (in words) (astrocytes [3]; 50 μM LA, 100 nM vitD, no H2O2, p>0.05 vs control): maintaining the production of ROS below the physiological level; reduction of activation of p53 with respect to 300 μM Fe^3+ (p53 [11]): about 84%; reduction of level of APP against 300 μM Fe^3+ [12]: about 63%; expression of SOD3 after Fe^3+ (in words) (SOD3 [13]): reduced; activation of ERK/MAPK with respect to 300 μM Fe^3+ (in words) (ERK/MAPK [14]): significant reduction; absorption capacity through the blood-brain barrier (basolateral volume analysis) with respect to the control [15]: ~40.5%
3 | OO [H2O2] | – | – | – | – | – | – | – | – | – | – | – | – | – | – | – | – | – | – | – | – | reduction of cell viability with respect to the control (astrocytes [2]; 200 μM H2O2): 46%; increase of production of intracellular ROS with respect to the control (astrocytes [3]; 200 μM stressor alone): about 30%; reduction of activity of ERK with respect to the control (ERK/MAPK [7]; 200 μM H2O2): about 6%; reduction of activity of Akt with respect to the control (PI3K-Akt; 200 μM H2O2): ~7%
4 | [Fe+3] [Fe^3+] | – | – | – | – | – | – | – | – | – | – | – | – | – | – | – | – | – | – | – | – | reduction of cell viability with respect to the control (astrocytes [8]; 300 μM Fe^3+, 6 days): about 23%; increase of production of intracellular ROS with respect to the control (astrocytes [9]; 300 μM Fe^3+, 6 days): about 60%; increase of intracellular iron accumulation with respect to the control (astrocytes [10]; 300 μM Fe^3+, 6 days): about 69%; increase of level of APP with respect to the control ([12]; 300 μM Fe^3+, 6 days): about 43%
